In ChEMBL document CHEMBL1201862, “PubChem BioAssay data set” (2004):
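Following 48 hours of exposure in 96-well plates, responses at five concentrations were used to interpolate endpoints linearly. GI50 = concentration required for 50% inhibition of growth.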 Calls of active or inactive are those of the source. Rule as the data show it: active = GI50 up to about 1.1 µM and inactive = higher.

Legend:
Experiment in all cases: NCI-60 cell line screen, 48 h
MDA-MB-231 = system: MDA-MB-231
HCT-15 = system: HCT-15
PC-3 = system: PC-3
RXF 393 = system: RXF 393
SR = system: SR
COLO 205 = system: COLO 205
TK-10 = system: TK-10
BT-549 = system: BT-549
UACC-257 = system: UACC-257
SF-539 = system: SF-539
Malme-3M = system: Malme-3M
U-251 = system: U-251
HL-60 = system: HL-60
UO-31 = system: UO-31
OVCAR-4 = system: OVCAR-4
LOX IMVI = system: LOX IMVI
SF-295 = system: SF-295
NCI/ADR-RES = system: NCI/ADR-RES
SF-268 = system: SF-268
CAKI-1 = system: CAKI-1

| SMILES | GI50 (MDA-MB-231) | GI50 (HCT-15) [µM] | GI50 (PC-3) | GI50 (RXF 393) | GI50 (SR) | GI50 (COLO 205) | GI50 (TK-10) | GI50 (BT-549) | GI50 (UACC-257) | GI50 (SF-539) | GI50 (Malme-3M) | GI50 (U-251) | GI50 (HL-60) | GI50 (UO-31) | GI50 (OVCAR-4) | GI50 (LOX IMVI) | GI50 (SF-295) | GI50 (NCI/ADR-RES) | GI50 (SF-268) | GI50 (CAKI-1) |
| --- | --- | --- | --- | --- | --- | --- | --- | --- | --- | --- | --- | --- | --- | --- | --- | --- | --- | --- | --- | --- |
| O=C(CCc1ccc(O)c(O)c1)NCCc1ccccc1 | 16.8 µM (inactive) | 15.5 | > 37.2 µM (inactive) | > 100 µM (inactive) | 7.16 µM (inactive) | 23.1 µM (inactive) | > 79.8 µM (inactive) | 31.8 µM (inactive) | > 79.4 µM (inactive) | > 47.8 µM (inactive) | > 100 µM (inactive) | 75 µM (inactive) | 6.58 µM (inactive) | 10.2 µM (inactive) | 14.6 µM (inactive) | 63.2 µM (inactive) | > 91.2 µM (inactive) | 40.4 µM (inactive) | > 32.4 µM (inactive) | 6.49 µM (inactive) |
| O=C(O)c1ccc(OCc2ccccc2)c(Cl)c1 | > 100 µM (inactive) | > 100 | > 100 µM (inactive) | > 100 µM (inactive) | > 100 µM (inactive) | > 100 µM (inactive) | > 100 µM (inactive) | > 100 µM (inactive) | > 100 µM (inactive) | > 100 µM (inactive) | > 100 µM (inactive) | > 100 µM (inactive) | > 100 µM (inactive) | > 100 µM (inactive) | 14 µM (inactive) | > 100 µM (inactive) | > 100 µM (inactive) | > 100 µM (inactive) | > 100 µM (inactive) | 20.2 µM (inactive) |
| NNC(=O)Nc1nc2ccc(NN)cc2[nH]1 | 51.9 µM (inactive) | 31.3 | 34.4 µM (inactive) | 25 µM (inactive) | 19.5 µM (inactive) | 16.5 µM (inactive) | 36 µM (inactive) | 24 µM (inactive) | 31.8 µM (inactive) | 12.6 µM (inactive) | 59.6 µM (inactive) | 37 µM (inactive) | 12.5 µM (inactive) | 60.5 µM (inactive) | 34.3 µM (inactive) | 43.1 µM (inactive) | 47.2 µM (inactive) | 47.8 µM (inactive) | 37.2 µM (inactive) | 41.7 µM (inactive) |
| Cc1cc(NC(=O)NC(=O)c2ccccc2NC(=O)CN(C)C)ccc1Oc1ncc(Br)cn1 | 1.95 µM (inactive) | 3.18 | 1.08 µM (active) | 1.98 µM (inactive) | 3.24 µM (inactive) | 2.38 µM (inactive) | 21.6 µM (inactive) | > 100 µM (inactive) | 57.5 µM (inactive) | 1.56 µM (inactive) | 6.84 µM (inactive) | 3.92 µM (inactive) | 0.658 µM (active) | 8.55 µM (inactive) | 71.3 µM (inactive) | 9.98 µM (inactive) | 0.748 µM (active) | 1.05 µM (active) | 10 µM (inactive) | 3.68 µM (inactive) |
| Oc1ccc(Cn2c(-c3ccc(O)c(O)c3)nc3ccccc32)cc1O | 12.3 µM (inactive) | 7.48 | 22.1 µM (inactive) | 29.4 µM (inactive) | 3.72 µM (inactive) | 17.4 µM (inactive) | 9.64 µM (inactive) | 10.4 µM (inactive) | 33 µM (inactive) | 7.45 µM (inactive) | 9.12 µM (inactive) | 5.09 µM (inactive) | 16.8 µM (inactive) | 10.8 µM (inactive) | 4.9 µM (inactive) | 11.8 µM (inactive) | 23.6 µM (inactive) | 32.9 µM (inactive) | 11.5 µM (inactive) | 15.5 µM (inactive) |
| Cc1cc(C)n(-c2nc(-n3nc(C)cc3C)nc(-n3nc(C)cc3C)n2)n1 | > 100 µM (inactive) | 83.8 | > 100 µM (inactive) | > 100 µM (inactive) | > 100 µM (inactive) | > 100 µM (inactive) | 30.1 µM (inactive) | > 100 µM (inactive) | > 100 µM (inactive) | > 100 µM (inactive) | 37.2 µM (inactive) | > 10 µM (inactive) | > 100 µM (inactive) | 43.3 µM (inactive) | > 100 µM (inactive) | > 100 µM (inactive) | > 100 µM (inactive) | > 100 µM (inactive) | > 100 µM (inactive) | 39.2 µM (inactive) |
| Cc1cc(S(=O)(=O)N/C(=N/N)NCCc2ccccc2)c(S)cc1Cl | 29.6 µM (inactive) | 19.2 | 30.1 µM (inactive) | 21.7 µM (inactive) | 29.9 µM (inactive) | 49.3 µM (inactive) | 39.4 µM (inactive) | 15.4 µM (inactive) | 44.4 µM (inactive) | 24 µM (inactive) | 22 µM (inactive) | 16.6 µM (inactive) | 44.1 µM (inactive) | 27.6 µM (inactive) | 22.9 µM (inactive) | 29.6 µM (inactive) |  | 22.9 µM (inactive) | 28.7 µM (inactive) | 26.4 µM (inactive) |
| CC(C)=CCN1c2ccccc2[C@@]2(CC=C(C)C)CCN(C)[C@@H]12 [(+)-DEBROMOFLUSTRAMINE B] | 21.4 µM (inactive) | 25.6 | 27 µM (inactive) | 28.5 µM (inactive) | 33.4 µM (inactive) | 13.9 µM (inactive) | 35.9 µM (inactive) | 21.9 µM (inactive) | > 10 µM (inactive) | 24.3 µM (inactive) | 17.7 µM (inactive) | 18.2 µM (inactive) | 16.1 µM (inactive) | 14.8 µM (inactive) | 35.6 µM (inactive) | 15.1 µM (inactive) | 21 µM (inactive) | 18.3 µM (inactive) | 46.3 µM (inactive) | 26.8 µM (inactive) |
| C#CCn1c(=O)c(C)cn(/C(=C\C(=O)OCC)C(=O)OCC)c1=O | 10.1 µM (inactive) | 1.58 | 13.5 µM (inactive) | 1.95 µM (inactive) | 2.96 µM (inactive) | 1.17 µM (inactive) | 1.77 µM (inactive) | 9.71 µM (inactive) | 14.7 µM (inactive) | 1.28 µM (inactive) | 2.1 µM (inactive) | 8.11 µM (inactive) | 1.35 µM (inactive) | 12.7 µM (inactive) | 2.69 µM (inactive) | 11.1 µM (inactive) | 19.5 µM (inactive) | 3.86 µM (inactive) | 16.1 µM (inactive) | 1.36 µM (inactive) |
| CCNC(=O)OCC1C2=C(C(=O)C(C)=C(N)C2=O)N2CC3C(N3C)C12OC (centres undefined) | > 100 µM (inactive) | 14.6 | 24.5 µM (inactive) | 32.5 µM (inactive) | 1.48 µM (inactive) | 27.6 µM (inactive) | 60.1 µM (inactive) | 11.5 µM (inactive) | 62.4 µM (inactive) | 16.6 µM (inactive) | 17.6 µM (inactive) | 23.8 µM (inactive) | 3.94 µM (inactive) | 19.5 µM (inactive) | 26.6 µM (inactive) | 13.7 µM (inactive) | 7.76 µM (inactive) | > 75.5 µM (inactive) | 15.7 µM (inactive) | 3.95 µM (inactive) |
| CO/N=C1\CC(C)N2C(=O)C(C(C)C)NC(=O)C(NC(=O)c3c4nc5c(C(=O)NC6C(=O)NC(C(C)C)C(=O)N7C(C)CC(O)C7C(=O)N(C)CC(=O)N(C)C(C(C)C)C(=O)OC6C)ccc(C)c5oc-4c(C)c(=O)c3N)C(CO)OC(=O)C(C)N(C)C(=O)CN(C)C(=O)C12 (centres undefined) | 0.656 µM (active) | 7.01 | 1.95 µM (inactive) | 0.865 µM (active) | 0.0184 µM (active) | 0.411 µM (active) | 5.48 µM (inactive) | 2.45 µM (inactive) | 0.65 µM (active) | 0.348 µM (active) | 0.374 µM (active) | 0.242 µM (active) | 0.555 µM (active) | 2.23 µM (inactive) | 5.82 µM (inactive) | 0.156 µM (active) | 1.13 µM (inactive) | 16.6 µM (inactive) | 0.986 µM (active) | 4.54 µM (inactive) |
| NCCN(CCN)/[N+]([O-])=N/O | > 100 µM (inactive) | > 100 | > 100 µM (inactive) | > 100 µM (inactive) | 91.2 µM (inactive) | > 100 µM (inactive) | > 100 µM (inactive) | > 100 µM (inactive) | > 100 µM (inactive) | > 100 µM (inactive) | > 100 µM (inactive) | > 100 µM (inactive) | > 100 µM (inactive) | > 100 µM (inactive) | > 100 µM (inactive) | > 100 µM (inactive) | > 100 µM (inactive) | 82.8 µM (inactive) | > 100 µM (inactive) | > 100 µM (inactive) |
| COc1ccc(-c2cs/c(=N\c3ccccc3)n2CC(O)c2ccc([N+](=O)[O-])cc2)cc1 (centres undefined) | > 100 µM (inactive) | > 100 | > 100 µM (inactive) | > 100 µM (inactive) | 4.25 µM (inactive) | > 100 µM (inactive) | > 100 µM (inactive) | > 100 µM (inactive) | > 76.9 µM (inactive) | > 100 µM (inactive) | > 100 µM (inactive) | > 100 µM (inactive) | > 100 µM (inactive) | > 100 µM (inactive) | > 100 µM (inactive) | > 100 µM (inactive) | > 100 µM (inactive) | > 74.5 µM (inactive) | > 100 µM (inactive) | > 100 µM (inactive) |
